Laboratory results: patent US6737383B1, “Herbicidal oxadiazolidines” (priority 1999, dated 2004)

Tests used:
surinam grass = test: Test B pre/postemergence surinam grass; type: in vivo, Brachiaria decumbens
Outline: (§1)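 Test chemicals in a non-phytotoxic solvent mixture with surfactant were sprayed preemergence onto planted seeds and postemergence onto plants 2 to 18 cm tall (1- to 4-leaf stage). After twelve to sixteen days in a greenhouse, injury was visually rated against untreated controls from 0 (no effect) to 10 (complete control).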

velvetleaf = test: Test B pre/postemergence velvetleaf; type: in vivo, Abutilon theophrasti
Outline: as §1

wheat = test: Test B pre/postemergence wheat; type: in vivo, Triticum aestivum
Outline: as §1

soybean = test: Test B pre/postemergence soybean; type: in vivo, Glycine max
Outline: as §1

smallflower flatsedge = test: Test B flood test smallflower flatsedge; type: in vivo, Cyperus difformis
Outline: (§2)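 Read-out is a visual response score from 0 (no effect) to 10 (complete control), assigned by comparison with untreated controls. Treatment was applied at the 2-leaf stage, and plants stayed in the greenhouse for twelve to sixteen days before scoring.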

blackgrass = test: Test B pre/postemergence blackgrass; type: in vivo, Alopecurus myosuroides
Outline: as §1

bedstraw = test: Test B pre/postemergence bedstraw; type: in vivo, Galium aparine
Outline: as §1

morningglory = test: Test B pre/postemergence morningglory; type: in vivo, Ipomoea hederacea
Outline: as §1

giant foxtail = test: Test B pre/postemergence giant foxtail; type: in vivo, Setaria faberii
Outline: as §1

wild oat = test: Test B pre/postemergence wild oat; type: in vivo, Avena fatua
Outline: as §1

crabgrass = test: Test B pre/postemergence crabgrass; type: in vivo, Digitaria sanguinalis
Outline: as §1

bamyardgrass = test: Test B flood test barnyardgrass; type: in vivo, Echinochloa crus-galli
Outline: as §2

purple nutsedge = test: Test B pre/postemergence purple nutsedge; type: in vivo, Cyperus rotundus
Outline: as §1

corn = test: Test B pre/postemergence corn; type: in vivo, Zea mays
Outline: as §1

cocklebur = test: Test B pre/postemergence cocklebur; type: in vivo, Xanthium strumarium
Outline: as §1

duck salad = test: Test B flood test duck salad; type: in vivo, Heteranthera limosa
Outline: as §2

rice = test: Test B flood test rice; type: in vivo, Oryza sativa
Outline: as §2

[1] = Preemergence, Rate 62 g/ha, scale of 0 to 10 where 0 is no effect and 10 is complete control
[2] = Preemergence, Rate 250 g/ha, scale of 0 to 10 where 0 is no effect and 10 is complete control
[3] = Preemergence, Rate 500 g/ha, scale of 0 to 10 where 0 is no effect and 10 is complete control
[4] = Rate 62 g/ha, Postemergence, scale of 0 to 10 where 0 is no effect and 10 is complete control
[5] = Rate 125 g/ha, Preemergence, scale of 0 to 10 where 0 is no effect and 10 is complete control
[6] = Rate 500 g/ha, Postemergence, scale 0 to 10, 0 no effect, 10 complete control
[7] = Rate 62 g/ha, headed Pre-emergence (flood test species), scale 0 to 10 (0 no effect, 10 complete control)
[8] = Rate 125 g/ha, Pre-emergence, flood test species, scale 0 to 10 where 0 is no effect and 10 is complete control
[9] = Rate 250 g/ha, Pre-emergence, flood-test species, scale 0 to 10, 0 is no effect, 10 is complete control
[10] = Rate 500 g/ha, Pre-emergence, flood test species, scale 0 to 10 (0 no effect, 10 complete control)
[11] = Rate 125 g/ha, Postemergence, scale 0 to 10

CC(C)N(C(=O)n1oc(=O)n(C2CC2)c1=O)c1ccc(Cl)cc1 [Compound 241]
B. signalgrass plant response rating (surinam grass; [1]): 0 | B. signalgrass plant response rating (surinam grass; [2]): 4 | Plant response rating, B. signalgrass (surinam grass; [3]): 4 | B. signalgrass plant response rating (surinam grass; [4]): 0 | B. signalgrass plant response rating (surinam grass; Rate 125 g/ha, Postemergence, scale 0 (no effect) to 10 (complete control)): 2 | B. signalgrass plant response rating (surinam grass; [5]): 2 | Plant response rating (0 to 10; 0 is no effect, 10 is complete control), B. signalgrass (surinam grass; Rate 250 g/ha, Postemergence): 4 | B. signalgrass plant response rating (surinam grass; [6]): 6 | Velvetleaf plant response rating (velvetleaf; [1]): 2 | Velvetleaf plant response rating (velvetleaf; [2]): 5 | Plant response rating, Velvetleaf (velvetleaf; [3]): 7 | Velvetleaf plant response rating (velvetleaf; [4]): 2 | Velvetleaf plant response rating (velvetleaf; [5]): 5 | Velvetleaf plant response rating (velvetleaf; [6]): 1 | Wheat plant response rating (wheat; [1]): 0 | Wheat plant response rating (wheat; [2]): 3 | Plant response rating, Wheat (wheat; [3]): 5 | Wheat plant response rating (wheat; [4]): 0 | Wheat plant response rating (wheat; [5]): 0 | Wheat plant response rating (wheat; [6]): 8 | Soybean plant response rating (soybean; [1]): 0 | Soybean plant response rating (soybean; [2]): 0 | Plant response rating, Soybean (soybean; [3]): 4 | Soybean plant response rating (soybean; [4]): 1 | Soybean plant response rating (soybean; [5]): 0 | Soybean plant response rating (soybean; [6]): 4 | S. Flatsedge plant response rating (smallflower flatsedge; [7]): 0 | S. Flatsedge plant response rating (smallflower flatsedge; [8]): 0 | S. Flatsedge plant response rating (smallflower flatsedge; [9]): 0 | S. Flatsedge plant response rating (smallflower flatsedge; [10]): 0 | Blackgrass plant response rating (blackgrass; [1]): 6 | Blackgrass plant response rating (blackgrass; [2]): 7 | Plant response rating, Blackgrass (blackgrass; [3]): 10 | Blackgrass plant response rating (blackgrass; [4]): 3 | Blackgrass plant response rating (blackgrass; [11]): 7 | Blackgrass plant response rating (blackgrass; [5]): 6 | Plant response rating (0 to 10; 0 is no effect, 10 is complete control), Blackgrass (blackgrass; Rate 250 g/ha, Postemergence): 8 | Blackgrass plant response rating (blackgrass; [6]): 9 | Bedstraw plant response rating (bedstraw; [2]): 7 | Plant response rating, Bedstraw (bedstraw; [3]): 10 | Bedstraw plant response rating (bedstraw; [4]): 0 | Bedstraw plant response rating (bedstraw; [11]): 3 | Bedstraw plant response rating (bedstraw; [5]): 0 | Plant response rating (0 to 10; 0 is no effect, 10 is complete control), Bedstraw (bedstraw; Rate 250 g/ha, Postemergence): 7 | Bedstraw plant response rating (bedstraw; [6]): 7 | Morningglory plant response rating (morningglory; [1]): 0 | Morningglory plant response rating (morningglory; [2]): 3 | Plant response rating, Morningglory (morningglory; [3]): 5 | Morningglory plant response rating (morningglory; [4]): 3 | Morningglory plant response rating (morningglory; [5]): 0 | Plant response rating (0 to 10; 0 is no effect, 10 is complete control), Morningglory (morningglory; Rate 250 g/ha, Postemergence): 5 | Morningglory plant response rating (morningglory; [6]): 8 | Giant foxtail plant response rating (giant foxtail; [1]): 10 | Giant foxtail plant response rating (giant foxtail; [2]): 10 | Plant response rating, Giant foxtail (giant foxtail; [3]): 10 | Giant foxtail plant response rating (giant foxtail; [4]): 2 | Giant foxtail plant response rating (giant foxtail; [5]): 10 | Plant response rating (0 to 10; 0 is no effect, 10 is complete control), Giant foxtail (giant foxtail; Rate 250 g/ha, Postemergence): 6 | Giant foxtail plant response rating (giant foxtail; [6]): 8 | Wild oats plant response rating (wild oat; [1]): 3 | Wild oats plant response rating (wild oat; [2]): 8 | Plant response rating, Wild oats (wild oat; [3]): 8 | Wild oats plant response rating (wild oat; [4]): 0 | Wild oats plant response rating (wild oat; [5]): 5 | Wild oats plant response rating (wild oat; [6]): 2 | Crabgrass plant response rating (crabgrass; [1]): 3 | Crabgrass plant response rating (crabgrass; [2]): 10 | Plant response rating, Crabgrass (crabgrass; [3]): 10 | Crabgrass plant response rating (crabgrass; [4]): 2 | Crabgrass plant response rating (crabgrass; [5]): 7 | Plant response rating (0 to 10; 0 is no effect, 10 is complete control), Crabgrass (crabgrass; Rate 250 g/ha, Postemergence): 8 | Crabgrass plant response rating (crabgrass; [6]): 9 | Barnyardgrass plant response rating (bamyardgrass; [7]): 0 | Barnyardgrass plant response rating (bamyardgrass; [8]): 0 | Barnyardgrass plant response rating (bamyardgrass; [9]): 0 | Barnyardgrass plant response rating (bamyardgrass; [10]): 0 | Nutsedge plant response rating (purple nutsedge; [2]): 10 | Plant response rating, Nutsedge (purple nutsedge; [3]): 10 | Nutsedge plant response rating (purple nutsedge; [4]): 0 | Nutsedge plant response rating (purple nutsedge; [5]): 0 | Plant response rating (0 to 10; 0 is no effect, 10 is complete control), Nutsedge (purple nutsedge; Rate 250 g/ha, Postemergence): 0 | Nutsedge plant response rating (purple nutsedge; [6]): 6 | Corn plant response rating (corn; [1]): 0 | Corn plant response rating (corn; [2]): 0 | Plant response rating, Corn (corn; [3]): 5 | Corn plant response rating (corn; [4]): 0 | Corn plant response rating (corn; [11]): 0 | Corn plant response rating (corn; [5]): 0 | Plant response rating (0 to 10; 0 is no effect, 10 is complete control), Corn (corn; Rate 250 g/ha, Postemergence): 0 | Corn plant response rating (corn; [6]): 0 | Cocklebur plant response rating (cocklebur; [1]): 0 | Cocklebur plant response rating (cocklebur; [2]): 0 | Plant response rating, Cocklebur (cocklebur; [3]): 0 | Cocklebur plant response rating (cocklebur; [4]): 0 | Cocklebur plant response rating (cocklebur; [11]): 0 | Cocklebur plant response rating (cocklebur; [5]): 0 | Plant response rating (0 to 10; 0 is no effect, 10 is complete control), Cocklebur (cocklebur; Rate 250 g/ha, Postemergence): 1 | Cocklebur plant response rating (cocklebur; [6]): 1 | Ducksalad plant response rating (duck salad; [7]): 0 | Ducksalad plant response rating (duck salad; [8]): 0 | Ducksalad plant response rating (duck salad; [9]): 0 | Ducksalad plant response rating (duck salad; [10]): 0 | Rice plant response rating (rice; [7]): 0 | Rice plant response rating (rice; [8]): 0 | Rice plant response rating (rice; [9]): 0 | Rice plant response rating (rice; [10]): 0
